Patent US20110230472A1, “RING-FUSED AZOLE DERIVATIVE HAVING PI3K-INHIBITING ACTIVITY” (Shionogi & Co., Ltd., priority 2008, published 2011)

Tests used:
CYP2D6 = molecular target: T1, CYP2D6 (Homo sapiens, UniProt P10635); test: CYP inhibition test, pooled human liver microsome, CYP2D6; format: in vitro ADME; settings: O-demethylation of dextromethorphan
T1 construct: enzyme: pooled human liver microsome 0.2 mg protein/mL; from tissue; host or cells: pooled human liver microsome
In short: (§1)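 Pooled human liver microsomes (0.2 mg protein/mL) in 50 mmol/L Hepes with NADPH, 15 min at 37° C; test drug at 1, 5, 10, 20 μmol/L. Substrates: 0.5 μmol/L ethoxyresorufin (1A2, resorufin by fluorescence), 100 μmol/L tolbutamide (2C9), 5 μmol/L dextromethorphan (2D6), 1 μmol/L terfenadine (3A4), metabolites by LC/MS/MS. IC50 from remaining activity vs DMSO control, logistic model.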

Metabolic stability test = format: in vitro ADME; settings: human liver microsome 0.5 mg protein/mL, 1 mmol/L NADPH, 37° C.
In short: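 Pooled human liver microsomes (0.5 mg protein/mL) incubated with compound and 1 mmol/L NADPH at 37° C. in pH 7.4 Tris buffer for 0 or 30 min. Parent quantified by LC/MS/MS after methanol/acetonitrile quench; value is % remaining at 30 min versus 0 min.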

CYP2C9 = molecular target: T2, CYP2C9 (Homo sapiens, UniProt P11712); test: CYP inhibition test, pooled human liver microsome, CYP2C9; format: in vitro ADME; settings: methyl-hydroxylation of tolbutamide
T2 construct: enzyme: pooled human liver microsome 0.2 mg protein/mL; from tissue; host or cells: pooled human liver microsome
T2 sequence (P11712 whole entry): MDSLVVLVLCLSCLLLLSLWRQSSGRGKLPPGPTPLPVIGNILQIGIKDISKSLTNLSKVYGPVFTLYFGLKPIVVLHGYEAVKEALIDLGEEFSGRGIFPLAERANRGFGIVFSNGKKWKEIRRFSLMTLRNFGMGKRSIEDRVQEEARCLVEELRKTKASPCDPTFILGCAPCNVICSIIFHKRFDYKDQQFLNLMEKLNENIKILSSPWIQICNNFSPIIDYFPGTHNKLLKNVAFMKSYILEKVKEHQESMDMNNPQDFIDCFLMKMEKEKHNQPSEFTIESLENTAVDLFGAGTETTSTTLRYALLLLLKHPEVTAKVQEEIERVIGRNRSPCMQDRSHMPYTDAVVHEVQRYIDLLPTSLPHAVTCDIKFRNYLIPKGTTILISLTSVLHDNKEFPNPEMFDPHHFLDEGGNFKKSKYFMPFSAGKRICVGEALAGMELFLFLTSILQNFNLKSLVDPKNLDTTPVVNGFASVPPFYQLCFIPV
In short: as §1

CYP1A2 = molecular target: T3, CYP1A2 (Homo sapiens, UniProt P05177); test: CYP inhibition test, pooled human liver microsome, CYP1A2; format: in vitro ADME; settings: O-de-ethylation of 7-ethoxyresorufin
T3 construct: enzyme: pooled human liver microsome 0.2 mg protein/mL; from tissue; host or cells: pooled human liver microsome
T3 sequence (P05177 1-516): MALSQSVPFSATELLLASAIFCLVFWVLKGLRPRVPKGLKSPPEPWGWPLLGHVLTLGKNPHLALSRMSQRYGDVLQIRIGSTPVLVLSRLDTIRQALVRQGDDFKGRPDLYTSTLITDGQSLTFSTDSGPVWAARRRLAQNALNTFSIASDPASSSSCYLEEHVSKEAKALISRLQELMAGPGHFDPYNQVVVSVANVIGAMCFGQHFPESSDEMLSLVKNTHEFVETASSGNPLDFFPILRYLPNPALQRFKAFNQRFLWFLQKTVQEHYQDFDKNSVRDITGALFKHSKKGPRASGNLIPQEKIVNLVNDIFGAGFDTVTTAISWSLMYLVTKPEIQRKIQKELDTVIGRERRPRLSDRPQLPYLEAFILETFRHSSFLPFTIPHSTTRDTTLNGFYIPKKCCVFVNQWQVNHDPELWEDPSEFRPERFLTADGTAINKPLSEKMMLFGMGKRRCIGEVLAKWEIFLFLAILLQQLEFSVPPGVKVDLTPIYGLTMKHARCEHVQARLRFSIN
In short: as §1

CYP3A4 = molecular target: T4, CYP3A4 (Homo sapiens, UniProt P08684); test: CYP inhibition test, pooled human liver microsome, CYP3A4; format: in vitro ADME; settings: hydroxylation of terfenadine
T4 construct: enzyme: pooled human liver microsome 0.2 mg protein/mL; from tissue; host or cells: pooled human liver microsome
T4 sequence (P08684 whole entry): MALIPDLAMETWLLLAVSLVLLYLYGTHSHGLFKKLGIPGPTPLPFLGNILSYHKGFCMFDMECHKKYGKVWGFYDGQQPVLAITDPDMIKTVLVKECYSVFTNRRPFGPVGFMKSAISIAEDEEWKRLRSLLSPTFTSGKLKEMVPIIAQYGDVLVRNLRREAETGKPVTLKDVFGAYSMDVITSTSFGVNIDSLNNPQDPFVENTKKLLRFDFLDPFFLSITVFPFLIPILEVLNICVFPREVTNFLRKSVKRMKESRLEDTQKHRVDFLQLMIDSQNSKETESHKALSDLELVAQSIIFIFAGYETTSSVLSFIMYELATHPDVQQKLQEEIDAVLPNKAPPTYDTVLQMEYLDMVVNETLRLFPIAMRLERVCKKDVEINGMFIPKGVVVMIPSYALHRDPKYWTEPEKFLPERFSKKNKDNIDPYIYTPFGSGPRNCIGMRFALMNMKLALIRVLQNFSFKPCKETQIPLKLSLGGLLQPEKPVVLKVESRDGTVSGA
In short: as §1

Solubility test = format: physicochemical; settings: kinetic from dmso stock; artificial intestinal juice pH 6.8, 1% DMSO, 25° C. for 16 hours
In short: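 Kinetic solubility with 1% DMSO: compound from 10 mmol/L DMSO stock spiked into pH 6.8 phosphate artificial intestinal juice, held 16 h at 25 °C, then suction-filtered. Filtrate diluted twofold in methanol/water (1/1) and quantified by HPLC or LC/MS/MS via absolute calibration.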
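Throughout, for percentage of the test compound remained after reacting for 30 minutes: 100% equals the compound amount at 0 min reaction.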

T1 sequence (P10635 whole entry): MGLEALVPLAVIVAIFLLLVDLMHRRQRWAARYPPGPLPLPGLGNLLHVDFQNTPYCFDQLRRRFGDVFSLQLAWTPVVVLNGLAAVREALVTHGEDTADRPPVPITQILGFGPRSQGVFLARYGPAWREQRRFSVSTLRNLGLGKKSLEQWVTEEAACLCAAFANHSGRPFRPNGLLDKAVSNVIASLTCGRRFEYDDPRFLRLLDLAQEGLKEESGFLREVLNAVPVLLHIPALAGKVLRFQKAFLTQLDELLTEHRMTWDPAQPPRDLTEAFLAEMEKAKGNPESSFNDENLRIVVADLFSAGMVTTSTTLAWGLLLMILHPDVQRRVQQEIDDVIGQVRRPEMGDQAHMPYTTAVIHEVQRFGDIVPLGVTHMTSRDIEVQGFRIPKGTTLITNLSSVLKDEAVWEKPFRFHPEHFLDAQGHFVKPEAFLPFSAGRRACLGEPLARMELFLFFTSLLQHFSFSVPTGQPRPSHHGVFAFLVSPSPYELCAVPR

Compound	IC50 (CYP2D6) [µM]	percentage of the test compound remained after reacting for 30 minutes (Metabolic stability test) [%]	IC50 (CYP2C9) [µM]	IC50 (CYP1A2) [µM]	IC50 (CYP3A4) [µM]	solubility at 16 h (Solubility test) [µM]
CNC(=O)Nc1cc2n(n1)CCN2c1ccc(S(C)(=O)=O)cc1 [Compound I-89]	> 20	93.6	> 20	> 20	> 20	–
CN1CCc2cc(N3CCn4nc(NC(=O)c5cccnc5)cc43)ccc2C1=O [Compound I-347]	> 20	92	> 20	> 20	> 20	> 50
COc1cc(N2CCc3nc(NC(=O)NCc4cc(=O)[nH]o4)sc3C2)nc(OC)n1 [Compound I-279]	> 20	99.7	> 20	> 20	> 20	–
CNC(=O)Nc1nc2c(s1)CN(c1cc(Cl)nc(N)n1)CC2 [Compound I-118]	> 20	98.3	> 20	> 20	> 20	> 50
COc1cc(N2CCc3nc(NC(=O)NCC(=O)O)sc3C2)nc(OC)n1 [Compound I-208]	> 20	87.2	> 20	> 20	> 20	> 50
CNC(=O)Nc1nc2c(s1)CN(c1ccnc(OC)n1)CC2 [Compound I-142]	> 20	97.5	> 20	> 20	> 20	> 50
CN1CCc2cc(N3CCn4nc(NC(=O)c5ccco5)cc43)ccc2C1=O [Compound I-358]	> 20	88.4	> 20	> 20	> 20	> 50
CNC(=O)Nc1cc2n(n1)CCN2c1cc(C(=O)N2CCOCC2)cc(-c2ccc(N)nc2)c1 [Compound I-200]	> 20	98.6	> 20	> 20	> 20	> 50
